These results are taken from patent US7820623B2 (priority 2006, dated 2010).

For assay [1], the system named is thapsigargin-induced IFN-g production in human whole blood. The class given is cell-based.
The subject of assay [2] is thapsigargin-induced IL-2 production in human whole blood.
Where [3] appears, read: read-out: Analogue Activity (IC50) WB/IFNg.
Setting [4] is: read-out: Analogue Activity (IC50) WB/IL-2.

Where two headings read alike, the source gives them in different places. Bridge positions count the residues as written; N and C are the ends. Square brackets hold non-standard residues; d marks the D form. Ends that are not written are not given here. Peptide text beside a SMILES is read from it. 1Nal = N[C@@H](Cc1cccc2ccccc12)C(=O)O

For `CC[C@H](C)[C@@H]1NC(=O)[C@H](CCCCN)NC(=O)[C@@H](NC(=O)[C@H](CCCCN)NC(=O)[C@@H](NC(=O)[C@H](CC(N)=O)NC(=O)[C@@H](NC(=O)[C@@H](NC(=O)[C@@H](NC(=O)CN)C(C)C)[C@@H](C)CC)[C@@H](C)CC)C(C)C)CSSC[C@@H]2NC(=O)[C@H](CCCCN)NC(=O)CNC(=O)[C@H](Cc3ccccc3)NC(=O)[C@H](CCCNC(=N)N)NC(=O)[C@H](CCSC)NC(=O)CNC(=O)[C@H](C)NC(=O)[C@H](CCCCN)NC(=O)[C@H](CCCCN)NC(=O)[C@@H]3CSSC[C@@H](C(=O)N[C@H](C(=O)N4CCC[C@H]4C(=O)N[C@@H](CCCCN)C(=O)O)[C@@H](C)O)NC(=O)[C@H](Cc4c[nH]cn4)NC(=O)[C@H](CSSC[C@H](NC(=O)[C@H](CCC(N)=O)NC(=O)[C@H](CCCNC(=N)N)NC(=O)[C@H](CO)NC1=O)C(=O)N[C@@H](CC(C)C)C(=O)N[C@@H](CCC(=O)O)C(=O)N1CCC[C@H]1C(=O)N3)NC(=O)[C@H](CCCCN)NC(=O)[C@H](Cc1cccc3ccccc13)NC(=O)[C@H](CC(N)=O)NC(=O)[C@H](CCSC)NC2=O` [G31Nal] (H-GVIINVKCKISRQCLEPCKKAGMRFGKCMN[1Nal]KCHCTPK-OH; disulfide 8-28, 14-33, 18-35), the IC50 in assay [1] (setting [3]) was 0.467 nM; in assay [2] (setting [4]) it was 0.331 nM.

Consider “GVIINVKCKISRQCLEPCKKAGMRFGKCANGKCHCTPK [Ala-29 (SEQ ID No: 1424)]”, for which the IC50 in assay [1] (read-out: Average IC50 IFNg) came out at 0.292 nM; in assay [2] (read-out: Average IC50 IL-2), 0.447 nM.

`CC[C@H](C)[C@@H]1NC(=O)[C@H](CCCCN)NC(=O)[C@@H](NC(=O)[C@H](CCCCN)NC(=O)[C@@H](NC(=O)[C@H](CC(N)=O)NC(=O)[C@@H](NC(=O)[C@H](CCC(=O)O)NC(=O)[C@@H](NC(=O)CN)C(C)C)[C@@H](C)CC)C(C)C)CSSC[C@@H]2NC(=O)[C@H](CCCCN)NC(=O)CNC(=O)[C@H](Cc3ccccc3)NC(=O)[C@H](CCCNC(=N)N)NC(=O)[C@H](CCSC)NC(=O)CNC(=O)[C@H](C)NC(=O)[C@H](CCCCN)NC(=O)[C@H](CCCCN)NC(=O)[C@@H]3CSSC[C@@H](C(=O)N[C@H](C(=O)N4CCC[C@H]4C(=O)N[C@@H](CCCCN)C(=O)O)[C@@H](C)O)NC(=O)[C@H](Cc4c[nH]cn4)NC(=O)[C@H](CSSC[C@H](NC(=O)[C@H](CCC(N)=O)NC(=O)[C@H](CCCNC(=N)N)NC(=O)[C@H](CO)NC1=O)C(=O)N[C@@H](CC(C)C)C(=O)N[C@@H](CCC(=O)O)C(=O)N1CCC[C@H]1C(=O)N3)NC(=O)[C@H](CCCCN)NC(=O)CNC(=O)[C@H](CC(N)=O)NC(=O)[C@H](CCSC)NC2=O` [I3E] (H-GVEINVKCKISRQCLEPCKKAGMRFGKCMNGKCHCTPK-OH; disulfide 8-28, 14-33, 18-35): the IC50 in assay [1] (setting [3]) came to 0.16 nM; in assay [2] (setting [4]), 0.12 nM.

On to `CC[C@H](C)[C@@H]1NC(=O)[C@H](CCCCN)NC(=O)[C@@H](NC(=O)[C@H](CCCCN)NC(=O)[C@@H](NC(=O)[C@H](CC(N)=O)NC(=O)[C@@H](NC(=O)[C@@H](NC(=O)[C@@H](NC(=O)CN)C(C)C)[C@@H](C)CC)[C@@H](C)CC)C(C)C)CSSC[C@@H]2NC(=O)[C@H](CCCCN)NC(=O)CNC(=O)[C@H](Cc3ccccc3)NC(=O)[C@H](CCCNC(=N)N)NC(=O)[C@H](CCSC)NC(=O)CNC(=O)[C@H](C)NC(=O)[C@H](CCCCN)NC(=O)[C@H](CCCCN)NC(=O)[C@@H]3CSSC[C@@H](C(=O)N[C@H](C(=O)N4CCC[C@H]4C(=O)N[C@@H](CCCCN)C(=O)O)[C@@H](C)O)NC(=O)[C@H](CCCNC(=N)N)NC(=O)[C@H](CSSC[C@H](NC(=O)[C@H](CCC(N)=O)NC(=O)[C@H](CCCNC(=N)N)NC(=O)[C@H](CO)NC1=O)C(=O)N[C@@H](CC(C)C)C(=O)N[C@@H](CCC(=O)O)C(=O)N1CCC[C@H]1C(=O)N3)NC(=O)[C@H](CCCCN)NC(=O)CNC(=O)[C@H](CC(N)=O)NC(=O)[C@H](CCSC)NC2=O` [H34R] (H-GVIINVKCKISRQCLEPCKKAGMRFGKCMNGKCRCTPK-OH; disulfide 8-28, 14-33, 18-35), for which the IC50 in assay [1] (setting [3]) was 0.108 nM; in assay [2] (setting [4]), 0.092 nM.

On to `CC[C@H](C)[C@@H]1NC(=O)[C@H](CCCCN)NC(=O)[C@@H](NC(=O)[C@H](CCCCN)NC(=O)[C@@H](NC(=O)[C@H](CC(N)=O)NC(=O)[C@@H](NC(=O)[C@@H](NC(=O)[C@@H](NC(=O)CN)C(C)C)[C@@H](C)CC)[C@@H](C)CC)C(C)C)CSSC[C@@H]2NC(=O)[C@H](CCCCN)NC(=O)CNC(=O)[C@H](Cc3ccccc3)NC(=O)[C@H](CCCNC(=N)N)NC(=O)[C@H](CCSC)NC(=O)CNC(=O)[C@H](C)NC(=O)[C@H](CCCCN)NC(=O)[C@H](CCCCN)NC(=O)[C@@H]3CSSC[C@@H](C(=O)N[C@H](C(=O)N4CCC[C@H]4C(=O)N[C@@H](CCCCN)C(=O)O)[C@@H](C)O)NC(=O)[C@H](Cc4c[nH]cn4)NC(=O)[C@H](CSSC[C@H](NC(=O)[C@H](C)NC(=O)[C@H](CCCNC(=N)N)NC(=O)[C@H](CO)NC1=O)C(=O)N[C@@H](CC(C)C)C(=O)N[C@@H](CCC(=O)O)C(=O)N1CCC[C@H]1C(=O)N3)NC(=O)[C@H](CCCCN)NC(=O)CNC(=O)[C@H](CC(N)=O)NC(=O)[C@H](CCSC)NC2=O` [Q13A] (H-GVIINVKCKISRACLEPCKKAGMRFGKCMNGKCHCTPK-OH; disulfide 8-28, 14-33, 18-35), for which the IC50 in assay [1] (setting [3]) is 0.133 nM; in assay [2] (setting [4]) it was 0.148 nM.

“des1-7, E16K, K20D, des36-38 (CKISRQCLKPCKDAGMRFGKCMNGKCHC-NH2; ends and bridges not checked)”: the IC50 in assay [1] (read-out: WB/IFNg (IC50)) is 8.34 nM; in assay [2] (read-out: WB/IL-2 (IC50)) it was 8.18 nM.

Turning to `CC[C@H](C)[C@@H]1NC(=O)[C@H](CCCCN)NC(=O)[C@@H](NC(=O)[C@H](CCCCN)NC(=O)[C@@H](NC(=O)[C@H](CC(N)=O)NC(=O)[C@@H](NC(=O)[C@@H](NC(=O)[C@@H](NC(=O)CN)C(C)C)[C@@H](C)CC)[C@@H](C)CC)C(C)C)CSSC[C@@H]2NC(=O)[C@H](CCCCN)NC(=O)CNC(=O)[C@H](Cc3ccccc3)NC(=O)[C@H](CCCNC(=N)N)NC(=O)[C@H](CCSC)NC(=O)CNC(=O)[C@H](C)NC(=O)[C@H](CCCCN)NC(=O)[C@H](CCCCN)NC(=O)[C@@H]3CSSC[C@@H](C(=O)N[C@H](C(=O)N4CCC[C@H]4C(=O)N[C@@H](CCCCN)C(=O)O)[C@@H](C)O)NC(=O)[C@H](Cc4c[nH]cn4)NC(=O)[C@H](CSSC[C@H](NC(=O)[C@H](CCC(N)=O)NC(=O)[C@H](CCCNC(=N)N)NC(=O)[C@H](C)NC1=O)C(=O)N[C@@H](CC(C)C)C(=O)N[C@@H](CCC(=O)O)C(=O)N1CCC[C@H]1C(=O)N3)NC(=O)[C@H](CCCCN)NC(=O)CNC(=O)[C@H](CC(N)=O)NC(=O)[C@H](CCSC)NC2=O` [S11A] (H-GVIINVKCKIARQCLEPCKKAGMRFGKCMNGKCHCTPK-OH; disulfide 8-28, 14-33, 18-35), the IC50 in assay [1] (setting [3]) came to 0.11 nM; in assay [2] (setting [4]), 0.09 nM.

On to “GVIINVKCKASRQCLEPCKKAGMRFGKCMNGKCHCTPK [Ala-10 (SEQ ID No: 1408)]”, for which the IC50 worked out at 0.0296 nM in assay [1] (read-out: Average IC50 IFNg) and 0.05 nM in assay [2] (read-out: Average IC50 IL-2).

As for `CC[C@H](C)[C@@H]1NC(=O)[C@H](CCCCN)NC(=O)[C@@H](NC(=O)[C@H](CCCCN)NC(=O)[C@@H](NC(=O)[C@H](CC(N)=O)NC(=O)[C@@H](NC(=O)[C@@H](NC(=O)[C@@H](NC(=O)[C@H](C)N)C(C)C)[C@@H](C)CC)[C@@H](C)CC)C(C)C)CSSC[C@@H]2NC(=O)[C@H](CCCCN)NC(=O)CNC(=O)[C@H](Cc3ccccc3)NC(=O)[C@H](CCCNC(=N)N)NC(=O)[C@H](CCSC)NC(=O)CNC(=O)[C@H](C)NC(=O)[C@H](CCCCN)NC(=O)[C@H](CCCCN)NC(=O)[C@@H]3CSSC[C@@H](C(=O)N[C@H](C(=O)N4CCC[C@H]4C(=O)N[C@@H](CCCCN)C(=O)O)[C@@H](C)O)NC(=O)[C@H](Cc4c[nH]cn4)NC(=O)[C@H](CSSC[C@H](NC(=O)[C@H](CCC(N)=O)NC(=O)[C@H](CCCNC(=N)N)NC(=O)[C@H](CO)NC1=O)C(=O)N[C@@H](CC(C)C)C(=O)N[C@@H](CCC(=O)O)C(=O)N1CCC[C@H]1C(=O)N3)NC(=O)[C@H](CCCCN)NC(=O)CNC(=O)[C@H](CC(N)=O)NC(=O)[C@H](CCSC)NC2=O` [G1A] (H-AVIINVKCKISRQCLEPCKKAGMRFGKCMNGKCHCTPK-OH; disulfide 8-28, 14-33, 18-35), the IC50 in assay [1] (setting [3]) is 0.119 nM; in assay [2] (setting [4]), 0.122 nM.

On to `CC[C@H](C)[C@@H]1NC(=O)[C@H](CCCCN)NC(=O)[C@@H](NC(=O)[C@H](CCCCN)NC(=O)[C@@H](NC(=O)[C@H](CC(N)=O)NC(=O)[C@@H](NC(=O)[C@@H](NC(=O)[C@@H](NC(=O)CN)C(C)C)[C@@H](C)CC)[C@@H](C)CC)C(C)C)CSSC[C@@H]2NC(=O)[C@H](CCCCN)NC(=O)CNC(=O)[C@H](Cc3ccccc3)NC(=O)[C@H](CCCNC(=N)N)NC(=O)[C@H](CCSC)NC(=O)CNC(=O)[C@H](C)NC(=O)[C@H](Cc3cccc4ccccc34)NC(=O)[C@H](CCCCN)NC(=O)[C@@H]3CSSC[C@@H](C(=O)N[C@H](C(=O)N4CCC[C@H]4C(=O)N[C@@H](CCCCN)C(=O)O)[C@@H](C)O)NC(=O)[C@H](Cc4c[nH]cn4)NC(=O)[C@H](CSSC[C@H](NC(=O)[C@H](CCC(N)=O)NC(=O)[C@H](CCCNC(=N)N)NC(=O)[C@H](CO)NC1=O)C(=O)N[C@@H](CC(C)C)C(=O)N[C@@H](CCC(=O)O)C(=O)N1CCC[C@H]1C(=O)N3)NC(=O)[C@H](CCCCN)NC(=O)CNC(=O)[C@H](CC(N)=O)NC(=O)[C@H](CCSC)NC2=O` [K20Nal] (H-GVIINVKCKISRQCLEPCK[1Nal]AGMRFGKCMNGKCHCTPK-OH; disulfide 8-28, 14-33, 18-35), for which the results for the IC50 in assay [1] (setting [3]) and in assay [2] (setting [4]) were 0.125 nM and 0.074 nM, respectively.
